This passage reports inhibition of growth results from ChEMBL document CHEMBL3045802, “Synthesis and in vitro antitumor activity of new quinoline, pyrimido[4,5-b]quinoline, [1,2,3]triazino[4,5-b]quinoline, and [1,2,4]triazolo[2,3:3,4]pyrimido[6,5-b]quinoline analogs” (2013).

Some results are limits rather than exact numbers.

Holding throughout (format): functional
Assay [1] relates to M14. Nature of the assay: Cytotoxicity against Homo sapiens (human) M14 cells assessed as growth inhibition at 10 uM after 48 hr by coulter counter analysis. To be noted: M14, 48 h, read-out: GI.
For assay [2], the system named is LOX IMVI. Nature of the assay: Cytotoxicity against Homo sapiens (human) LOXIMVI cells assessed as growth inhibition at 10 uM after 48 hr by coulter counter analysis. To be noted: read-out: GI.
The subject of assay [3] is SNB-75. Put plainly: Cytotoxicity against Homo sapiens (human) SNB75 cells assessed as growth inhibition at 10 uM after 48 hr by coulter counter analysis. To be noted: SNB-75, 48 h, read-out: GI.
Assay [4] deals with SF-295. Put plainly: Cytotoxicity against Homo sapiens (human) SF295 cells assessed as growth inhibition at 10 uM after 48 hr by coulter counter analysis. To be noted: SF-295, 48 h, read-out: GI.
The subject of assay [5] is OVCAR-4. Put plainly: Cytotoxicity against Homo sapiens (human) OVCAR4 cells assessed as growth inhibition at 10 uM after 48 hr by coulter counter analysis. To be noted: OVCAR-4, 48 h, read-out: GI.
Assay [6] relates to UACC-62. Nature of the assay: Cytotoxicity against Homo sapiens (human) UACC62 cells assessed as growth inhibition at 10 uM after 48 hr by coulter counter analysis. To be noted: UACC-62, 48 h, read-out: GI.
Assay [7] deals with IGROV-1. Nature of the assay: Cytotoxicity against Homo sapiens (human) IGROV1 cells assessed as growth inhibition at 10 uM after 48 hr by coulter counter analysis. To be noted: IGROV-1, 48 h, read-out: GI.
For assay [8], the system named is MDA-MB-468. Put plainly: Cytotoxicity against Homo sapiens (human) MDA-MB-468 cells assessed as growth inhibition at 10 uM after 48 hr by coulter counter analysis. To be noted: MDA-MB-468, 48 h, read-out: GI.
For assay [9], the system named is Hs-578T. Nature of the assay: Cytotoxicity against Homo sapiens (human) Hs578T cells assessed as growth inhibition at 10 uM after 48 hr by coulter counter analysis. To be noted: read-out: GI.
Assay [10] deals with MDA-MB-231. Nature of the assay: Cytotoxicity against Homo sapiens (human) MDA-MB-231 cells assessed as growth inhibition at 10 uM after 48 hr by coulter counter analysis. To be noted: MDA-MB-231, 48 h, read-out: GI.
The test system of assay [11] is MCF7. Put plainly: Cytotoxicity against Homo sapiens (human) MCF7 cells assessed as growth inhibition at 10 uM after 48 hr by coulter counter analysis. To be noted: MCF7, 48 h, read-out: GI.
Assay [12] concerns PC-3. Put plainly: Cytotoxicity against Homo sapiens (human) PC3 cells assessed as growth inhibition at 10 uM after 48 hr by coulter counter analysis. To be noted: PC-3, 48 h, read-out: GI.
The test system of assay [13] is UO-31. Put plainly: Cytotoxicity against Homo sapiens (human) UO31 cells assessed as growth inhibition at 10 uM after 48 hr by coulter counter analysis. To be noted: UO-31, 48 h, read-out: GI.
Assay [14] concerns TK-10. Nature of the assay: Cytotoxicity against Homo sapiens (human) TK10 cells assessed as growth inhibition at 10 uM after 48 hr by coulter counter analysis. To be noted: TK-10, 48 h, read-out: GI.
The test system of assay [15] is RXF 393. Put plainly: Cytotoxicity against Homo sapiens (human) RXF393 cells assessed as growth inhibition at 10 uM after 48 hr by coulter counter analysis. To be noted: RXF 393, 48 h, read-out: GI.
For assay [16], the system named is CAKI-1. Put plainly: Cytotoxicity against Homo sapiens (human) Caki1 cells assessed as growth inhibition at 10 uM after 48 hr by coulter counter analysis. To be noted: CAKI-1, 48 h, read-out: GI.
Assay [17] has as its system ACHN. Put plainly: Cytotoxicity against Homo sapiens (human) ACHN cells assessed as growth inhibition at 10 uM after 48 hr by coulter counter analysis. To be noted: read-out: GI.
Assay [18] relates to 786-0. Nature of the assay: Cytotoxicity against Homo sapiens (human) 786-0 cells assessed as growth inhibition at 10 uM after 48 hr by coulter counter analysis. To be noted: 786-0, 48 h, read-out: GI.
Assay [19] deals with SK-OV-3. Put plainly: Cytotoxicity against Homo sapiens (human) SKOV3 cells assessed as growth inhibition at 10 uM after 48 hr by coulter counter analysis. To be noted: SK-OV-3, 48 h, read-out: GI.
Assay [20] relates to OVCAR-8. Nature of the assay: Cytotoxicity against Homo sapiens (human) OVCAR8 cells assessed as growth inhibition at 10 uM after 48 hr by coulter counter analysis. To be noted: OVCAR-8, 48 h, read-out: GI.
Assay [21] relates to SF-268. Put plainly: Cytotoxicity against Homo sapiens (human) SF268 cells assessed as growth inhibition at 10 uM after 48 hr by coulter counter analysis. To be noted: SF-268, 48 h, read-out: GI.
The test system of assay [22] is KM12. Put plainly: Cytotoxicity against Homo sapiens (human) KM12 cells assessed as growth inhibition at 10 uM after 48 hr by coulter counter analysis. To be noted: KM12, 48 h, read-out: GI.
Assay [23] has as its system HCT-15. Nature of the assay: Cytotoxicity against Homo sapiens (human) HCT15 cells assessed as growth inhibition at 10 uM after 48 hr by coulter counter analysis. To be noted: HCT-15, 48 h, read-out: GI.
Assay [24] deals with MOLT-4. Put plainly: Cytotoxicity against Homo sapiens (human) MOLT4 cells assessed as growth inhibition at 10 uM after 48 hr by coulter counter analysis. To be noted: MOLT-4, 48 h, read-out: GI.

Turning to `COc1ccc(C2C3=C(CCCC3)Nc3nn[nH]c(=O)c32)cc1OC` (stereo unspecified), the inhibition of growth at 10 µM in assay [1] is below 10%; in assay [2] it was below 10%; in [3] it was 28.3%; in [4] it was below 10%; in assay [5], below 10%; in assay [6], 14.3%. Moreover, the inhibition of growth at 10 µM in assay [7] is below 10%; in [8], 21.1%; in assay [9] it was below 10%; in [10], below 10%; in [11] it was below 10%; in [12], 13.4%. The inhibition of growth at 10 µM is 48.6% in assay [13]; below 10% in assay [14]; 14.4% in [15]; 23.4% in [16]; 16% in assay [17]; below 10% in assay [18]. The inhibition of growth at 10 µM in assay [19], in [20], in assay [21], in assay [22], in assay [23] and in assay [24] was below 10% in each case.

As for `COc1ccc(C2C3=C(CCCC3)Nc3[nH]c(=S)nc(NC(N)=S)c32)cc1OC` (stereo unspecified), the inhibition of growth at 10 µM in assay [1] is below 10%; in assay [2], 16.1%; in assay [3], 20.3%; in assay [4], 14.4%; in assay [5], below 10%; in assay [6], below 10%. Besides, the inhibition of growth at 10 µM was below 10% in assay [7]; 14.2% in assay [8]; 17.7% in assay [9]; 17.4% in [10]; below 10% in [11]; 23.5% in assay [12]. In addition, the inhibition of growth at 10 µM in assay [13] was 43.5%; in [14], below 10%; in assay [15], 14.3%; in assay [16], 10%; in assay [17], 11.4%; in assay [18], below 10%. Also, the inhibition of growth at 10 µM in assay [19] was 18.6%; in assay [20], below 10%; in assay [21], below 10%; in assay [22], 21.3%; in [23], 10.2%; in assay [24], below 10%.

Turning to `COc1ccc(C2C3=C(CCCC3)Nc3nc(CC#N)[nH]c(=O)c32)cc1OC` (stereo unspecified), the inhibition of growth at 10 µM in assay [1], in [2], in assay [3], in [4], in assay [5] and in assay [6] was below 10% in each case. Besides, the inhibition of growth at 10 µM in assay [7], in [8], in assay [9], in assay [10], in assay [11] and in [12] was below 10% in each case. For the same compound, the inhibition of growth at 10 µM was 26.9% in assay [13]; below 10% in assay [14]; below 10% in [15]; below 10% in [16]; below 10% in assay [17]; below 10% in [18]. Further, the inhibition of growth at 10 µM in assay [19], in [20], in assay [21], in assay [22], in assay [23] and in assay [24] was below 10% throughout.

Take `O=c1[nH]c(-c2ccccc2)nc2c1C(c1ccc(Cl)cc1)C1=C(CCCC1)N2` (stereo unspecified): the inhibition of growth at 10 µM in assay [1] was below 10%; in assay [2], 11.2%; in assay [3], 15.5%; in assay [4], below 10%; in assay [5], below 10%; in [6] it was below 10%. The inhibition of growth at 10 µM in assay [7], in assay [8], in assay [9], in [10], in [11] and in assay [12] was below 10% in each case. The inhibition of growth at 10 µM in assay [13] is 43.3%; in [14], below 10%; in [15], below 10%; in assay [16], below 10%; in [17], below 10%; in assay [18], below 10%. Moreover, the inhibition of growth at 10 µM in assay [19] was below 10%; in [20], below 10%; in assay [21] it was below 10%; in assay [22], below 10%; in assay [23] it was below 10%; in assay [24] it was 13.6%.
